In ChEMBL document CHEMBL1201862, “PubChem BioAssay data set” (2004):
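96-well plates; 48 h exposure; 5 concentrations. Endpoints by linear interpolation between flanking doses. Not reached: highest tested concentration assigned. GI50 is the concentration that inhibits growth by half.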 Calls of active or inactive are those of the source. No stated cut-off is given here; in the data, active = GI50 up to about 1.1 µM and inactive = higher.

Experiments:
Assay in all cases: DTP human tumour cell line panel, 48 h
NCI-H23 = system: NCI-H23
Hs-578T = system: Hs-578T
OVCAR-5 = system: OVCAR-5
SNB-19 = system: SNB-19
A549 = system: A549
A498 = system: A498
NCI-H460 = system: NCI-H460
HCC 2998 = system: HCC 2998
MOLT-4 = system: MOLT-4
UACC-62 = system: UACC-62
NCI-H522 = system: NCI-H522
HOP-92 = system: HOP-92
HCT-116 = system: HCT-116
SR = system: SR
MCF7 = system: MCF7
OVCAR-4 = system: OVCAR-4
CCRF-CEM = system: CCRF-CEM
OVCAR-8 = system: OVCAR-8
LOX IMVI = system: LOX IMVI

| Compound | GI50 (NCI-H23) | GI50 (Hs-578T) | GI50 (OVCAR-5) | GI50 (SNB-19) | GI50 (A549) | GI50 (A498) | GI50 (NCI-H460) | GI50 (HCC 2998) | GI50 (MOLT-4) | GI50 (UACC-62) | GI50 (NCI-H522) | GI50 (HOP-92) | GI50 (HCT-116) | GI50 (SR) | GI50 (MCF7) | GI50 (OVCAR-4) | GI50 (CCRF-CEM) | GI50 (OVCAR-8) | GI50 (LOX IMVI) |
| --- | --- | --- | --- | --- | --- | --- | --- | --- | --- | --- | --- | --- | --- | --- | --- | --- | --- | --- | --- |
| Cc1cc(=O)oc2c(C)c(O)ccc12 | > 100 µM (inactive) | > 100 µM (inactive) | > 100 µM (inactive) | > 100 µM (inactive) | > 100 µM (inactive) | 78.9 µM (inactive) | > 100 µM (inactive) | > 100 µM (inactive) | 89.1 µM (inactive) | 99.3 µM (inactive) | > 100 µM (inactive) | > 100 µM (inactive) | > 100 µM (inactive) | > 100 µM (inactive) | > 100 µM (inactive) | > 100 µM (inactive) | > 100 µM (inactive) | > 100 µM (inactive) | > 100 µM (inactive) |
| O=C(Nc1ccccc1)c1cc(S(=O)(=O)N2CCNC2=O)c(S)cc1Cl | > 100 µM (inactive) | > 100 µM (inactive) | > 100 µM (inactive) | > 100 µM (inactive) | > 100 µM (inactive) | > 100 µM (inactive) | > 100 µM (inactive) | > 100 µM (inactive) | > 100 µM (inactive) | > 100 µM (inactive) | 23.2 µM (inactive) | > 100 µM (inactive) | > 100 µM (inactive) | > 100 µM (inactive) | > 100 µM (inactive) | > 100 µM (inactive) | > 100 µM (inactive) | > 100 µM (inactive) | > 100 µM (inactive) |
| CC[C@H](C)c1occ2c(O)c(C(=O)O)c(=O)cc-2c1C | 21.4 µM (inactive) | 48.5 µM (inactive) | 19.5 µM (inactive) | 31.7 µM (inactive) | 30 µM (inactive) | 29 µM (inactive) | 24.3 µM (inactive) | 21.1 µM (inactive) | 19.8 µM (inactive) | 17.3 µM (inactive) | 14.7 µM (inactive) | 21.8 µM (inactive) | 18.8 µM (inactive) | 21.9 µM (inactive) | 29.2 µM (inactive) | 24.8 µM (inactive) | 17.5 µM (inactive) | 19.2 µM (inactive) | 15.6 µM (inactive) |
| COc1ccc(CN(Cc2ccc(OC)cc2)C(=O)CC2(O)C=CCC2)cc1 (configuration not stated) | > 100 µM (inactive) | 48.4 µM (inactive) | > 100 µM (inactive) | 71.9 µM (inactive) | 46.2 µM (inactive) | > 100 µM (inactive) | 67.5 µM (inactive) | 69.2 µM (inactive) | 31.6 µM (inactive) | 57.7 µM (inactive) | 32.7 µM (inactive) | > 100 µM (inactive) | 55.3 µM (inactive) | 36.1 µM (inactive) | 43.9 µM (inactive) | 80 µM (inactive) | 47.6 µM (inactive) | 37.5 µM (inactive) | > 100 µM (inactive) |
| C/C(=N\O)c1ccc(OCc2cc(C(F)(F)F)cc(C(F)(F)F)c2)cc1 | 95.3 µM (inactive) | 37.8 µM (inactive) | > 100 µM (inactive) | 64.1 µM (inactive) | 46.1 µM (inactive) | > 100 µM (inactive) | 23.4 µM (inactive) | 32.1 µM (inactive) | 14.3 µM (inactive) | – | 38.1 µM (inactive) | 17.6 µM (inactive) | 31.3 µM (inactive) | 39.4 µM (inactive) | 20 µM (inactive) | 53.8 µM (inactive) | 15.9 µM (inactive) | 41.9 µM (inactive) | 39 µM (inactive) |
| CCCc1nnc2sc(COc3cc(Cl)c(OCc4nn5c(CCC)nnc5s4)cc3Cl)nn12 | 0.748 µM (active) | 32 µM (inactive) | > 100 µM (inactive) | 31.5 µM (inactive) | 35.2 µM (inactive) | 37.8 µM (inactive) | 42.8 µM (inactive) | 77.8 µM (inactive) | 0.4 µM (active) | 24.2 µM (inactive) | 27.3 µM (inactive) | 22 µM (inactive) | 46 µM (inactive) | 0.046 µM (active) | 23.6 µM (inactive) | 22.5 µM (inactive) | 15.6 µM (inactive) | 27.4 µM (inactive) | 37.1 µM (inactive) |
| NC(CCC(=O)NC(CSCC1C(=O)Nc2ccccc21)C(=O)NCC(=O)O)C(=O)O (configuration not stated) | 5.41 µM (inactive) | 48 µM (inactive) | 12.4 µM (inactive) | 44.3 µM (inactive) | 7.43 µM (inactive) | 13.8 µM (inactive) | 14.8 µM (inactive) | 5.75 µM (inactive) | 5.35 µM (inactive) | 8.32 µM (inactive) | 0.968 µM (active) | 4.16 µM (inactive) | 4.89 µM (inactive) | 0.386 µM (active) | 3.75 µM (inactive) | 8.41 µM (inactive) | 5.27 µM (inactive) | 6.15 µM (inactive) | 1.21 µM (inactive) |
| CC1=C(CO)C(=O)O[C@@H]([C@@H](CO)[C@H]2CCC3C4C[C@@H](O)[C@@]5(O)CC=CC(=O)[C@]5(C)C4CC[C@@]32C)C1 (some centres not stated) | 67.9 µM (inactive) | 59.2 µM (inactive) | 83.9 µM (inactive) | > 100 µM (inactive) | > 100 µM (inactive) | 63.4 µM (inactive) | – | 29.2 µM (inactive) | 36.3 µM (inactive) | 47 µM (inactive) | 39.2 µM (inactive) | 71 µM (inactive) | 37.2 µM (inactive) | 34.9 µM (inactive) | 50 µM (inactive) | 91.8 µM (inactive) | 34.1 µM (inactive) | 73.1 µM (inactive) | 38.5 µM (inactive) |
| COC(=O)c1ccccc1/C=C1/Cc2ccccc2C1=O | 68.4 µM (inactive) | 30.9 µM (inactive) | 33.3 µM (inactive) | – | 50.7 µM (inactive) | > 100 µM (inactive) | > 100 µM (inactive) | > 100 µM (inactive) | 24.4 µM (inactive) | 36.1 µM (inactive) | 31.7 µM (inactive) | 61.1 µM (inactive) | 24.4 µM (inactive) | 22.2 µM (inactive) | 11.5 µM (inactive) | 34.4 µM (inactive) | 31.3 µM (inactive) | 47.1 µM (inactive) | 17.8 µM (inactive) |
| COc1ccc(C2c3cc4c(cc3OC(NNc3ccccc3)C2C)OCO4)cc1 (configuration not stated) | 13.4 µM (inactive) | 16.1 µM (inactive) | 7.33 µM (inactive) | 40.7 µM (inactive) | 4.09 µM (inactive) | 17.2 µM (inactive) | 3.57 µM (inactive) | 1.82 µM (inactive) | 3.15 µM (inactive) | 4.92 µM (inactive) | 2.77 µM (inactive) | 19.5 µM (inactive) | 4.44 µM (inactive) | 1.71 µM (inactive) | 4.04 µM (inactive) | – | 4.01 µM (inactive) | 24.9 µM (inactive) | 16.6 µM (inactive) |
| C=CCNC1=C2C[C@@H](C)C[C@@H](OC)[C@H](OC(=O)CN)[C@H](C)/C=C(\C)[C@@H](OC(N)=O)[C@H](OC)/C=C\C=C(/C)C(=O)NC(=CC1=O)C2=O | 0.48 µM (active) | 7.73 µM (inactive) | 6.25 µM (inactive) | 5.4 µM (inactive) | 0.359 µM (active) | 0.74 µM (active) | 0.504 µM (active) | 0.27 µM (active) | 1.21 µM (inactive) | 0.381 µM (active) | 0.706 µM (active) | 3.41 µM (inactive) | 0.575 µM (active) | 0.134 µM (active) | 0.162 µM (active) | 4.35 µM (inactive) | 1.27 µM (inactive) | 0.904 µM (active) | 0.528 µM (active) |
| CCOC(=O)c1nc2cc(C(F)(F)F)ccc2nc1Oc1ccc(C(=O)OC)cc1 | – | > 100 µM (inactive) | > 100 µM (inactive) | > 100 µM (inactive) | > 100 µM (inactive) | > 100 µM (inactive) | > 100 µM (inactive) | > 100 µM (inactive) | > 100 µM (inactive) | > 100 µM (inactive) | 69.2 µM (inactive) | > 100 µM (inactive) | > 100 µM (inactive) | > 100 µM (inactive) | > 100 µM (inactive) | 78.7 µM (inactive) | 97.1 µM (inactive) | > 100 µM (inactive) | 83.8 µM (inactive) |
| CCN(CC)c1ccc(NC(=S)NN(C)C)cc1 | > 10 µM (inactive) | > 10 µM (inactive) | – | > 10 µM (inactive) | > 10 µM (inactive) | > 10 µM (inactive) | > 10 µM (inactive) | > 10 µM (inactive) | > 10 µM (inactive) | > 10 µM (inactive) | > 10 µM (inactive) | > 10 µM (inactive) | > 10 µM (inactive) | > 10 µM (inactive) | > 10 µM (inactive) | > 10 µM (inactive) | > 10 µM (inactive) | > 10 µM (inactive) | > 10 µM (inactive) |
| CCOC(=O)c1nc2ccccc2nc1NCc1ccc(OC)cc1 | > 100 µM (inactive) | 40.5 µM (inactive) | > 100 µM (inactive) | – | > 100 µM (inactive) | 32.2 µM (inactive) | 82.8 µM (inactive) | > 100 µM (inactive) | > 100 µM (inactive) | 84.1 µM (inactive) | 56.9 µM (inactive) | > 100 µM (inactive) | 54.8 µM (inactive) | > 100 µM (inactive) | 47.4 µM (inactive) | > 100 µM (inactive) | > 100 µM (inactive) | > 100 µM (inactive) | > 100 µM (inactive) |
| CC(=O)[C@@H](C)C(=O)N1C(=O)OC[C@@]12[C@@H]1CC[C@@H](C1)C2(C)C | > 100 µM (inactive) | > 100 µM (inactive) | > 100 µM (inactive) | > 100 µM (inactive) | > 100 µM (inactive) | > 100 µM (inactive) | > 100 µM (inactive) | > 100 µM (inactive) | – | > 100 µM (inactive) | > 100 µM (inactive) | > 100 µM (inactive) | > 100 µM (inactive) | 78.7 µM (inactive) | > 100 µM (inactive) | > 100 µM (inactive) | > 100 µM (inactive) | > 100 µM (inactive) | > 100 µM (inactive) |
